Measured values taken from patent US11046647B2, “Activators of the unfolded protein response” (The Board of Trustees of the University of Illinois, priority 2018, dated 2021).
Values joined by “and” are separate entries in the source; they are usually repeats but may differ in a detail not shown here. Identical values can stand only once.

Columns and labels:
[1] = system: TYS-Luc (T47DERαY537S-Luc human breast cancer cells) tumors; assay: Orthotopic TYS-Luc mouse xenograft, bioluminescent imaging (BLI); format: in vivo
Experimental: In a treatment and vehicle-controlled mouse tumor study, human breast cancer cells were engineered to contain both the lethal ERαY537S mutation found in metastatic breast cancer, and the gene for firefly luciferase—when the appropriate chemical is added, the firefly luciferase breaks down the chemical and light is produced. Using a sensitive detector called an imaging system, this allows us to image the tumors inside live mice. This is called bioluminescent imaging, or BLI. Large tumors were allowed to form. Then (−)-105 was injected daily under the skin for three weeks. Using the imaging system, the effect of (−)-105 on the tumors was monitored. At the same time the effect of the vehicle in which (−)-105 was dissolved on tumors was also monitored.
A study was performed to determine what happens after stopping treatment with (−)-105 (Table 2). The study was designed to show whether the micro-tumors would remain dormant, or whether they would regrow. At the end of the three-week treatment, there is residual material that gives off a tiny amount of light which are termed “micro-tumors”. Based on sensitivity of the imaging system, it is believed these micro-tumors contain anywhere from 0˜1,000 cancer cells; the micro-tumors will not be visible to the naked eye. Seeing them requires the powerful imaging system, or a microscope. To test whether these cells are either dead, or no longer dividing and are dormant, the cells two and 4 weeks after they stopped receiving any treatment were imaged. This study tested whether growing cancer cells have been eradicated; this study continues.
In a 3-week study, large breast tumors were present at start of treatment and regressed as shown in the image of FIG. 17. The study was performed using Orthotopic TYS-Luc (injected cells: T47DERαY537-Luc human breast cancer cells), e.g., the most lethal ERα mutation in human in metastatic breast cancer. Tumors were grown in NSG mice. Further details are provided in the Examples.
Experimental Details of the Xenografts: TYS-Luc cells (5,000,000 cells in Matrigel) were injected into the upper mammary fat pad of ovariectomized female NSG (SCID) mice (Jackson labs). After 10 weeks, on day 0, large tumors (size range: 100-600 mm^3) were present. Mice were treated with the vehicle used to dissolve (−)-105, or (−)-105 at 40 mg/kd daily by subcutaneous injection. For bioluminescent imaging (BLI) of the tumors, the mice were anesthetized with isoflurane and Lucerfin, the luciferase substrate, was injected into the mice. Flux, the total member of light photons hitting the detector in one second was measured using an IVIS ([…]). Shown is the flux (in millions of units per second) for the entire area containing each tumor, or an equivalent area when the tumor is tiny or undetectable and the percent change in tumor size at each time a measurement was taken (day 0, day 3, week 1, week 2, week 3). Then treatment was stopped, and another measurement was taken two weeks letter. Note that tumors were also measured with calipers. […] After three days all the (−)-105 tumors has declined to undetectable using calipers.

[2] = system: T47D cells; conditions: 100, 500 and 1,000 nM; 24 hours; n=1
Experimental: One such change is loss of plasma membrane polarity. This is monitored using Annexin V. Dying cells also take up the dye propidium iodide. Propidium iodide (PI) fluoresces when it is intercalated into DNA. These assays monitor cells at specific stages of cell death.
FLOW CYTOMETRY (FITC) ASSAYS: Cells were seeded in 12-well plates, 75,000 cells/well, and allowed to adhere overnight. The next day, the indicated concentrations of raptinal (positive control), (−)-105, (±)-105, and (+)-105 were added and allowed to incubate at 37° C. for 24 hours (Final Volume: 1 ml, 0.1% DMSO). After incubation, cells were harvested and resuspended in 350 μl of cold Annexin binding buffer (10 mM HEPES, 140 mM NaCl, 2.5 mM CaCl2, pH 7.4) premixed with Annexin V-FITC and PI dyes. Samples were analyzed on a BD Biosciences LSRII flow cytometer, and data analysis was performed using FSC Express Version 5-6. Cell death was assessed relative to a DMSO treated control.
T47D, human breast cancer cells were plated at 75,000 cells/well. The next day, DMSO vehicle, 10 μM raptinal (control for 100% cell death), or 0, 50, 100 500 and 1,000 nM of BHPI or (±)-105, or 1,000 nM ICI/fulvestrant or 1,000 nM OHT was added. After 24 hours viable cells were determined by FACS using annexin V-FITC and propidium iodide dyes. (n=3 independent experiments ±SEM).
75,000 ERα positive T47D, human breast cancer cells, were plated/well. The next day, DMSO vehicle, 10 μM raptinal (control for 100% cell death), or 100 500 and 1,000 nM of (+)-105, or (−)-105 was added. After 24 hours viable cells were determined by FACS using annexin V-FITC and propidium iodide dyes. (n=1).

[3] = system: TYS-Luc cells; assay: Long-term cell culture experiment (treat 2 weeks, regrow 4 weeks), MTS, TYS-Luc; format: cell-based, human
Experimental: To simulate the effect of several weeks of treatment of a tumor in a mouse xenograft, long-term cell culture experiments were performed. TYS-Luc cells (T47DERαY537S-Luc cells; ERαY537S is the most lethal ERα mutation seen in metastatic breast cancer) were plated at 4,000 cells/well in 96 well plates. […] After 2 weeks (medium change every 2 days) cell number was determined using MTS and a standard curve of absorbance versus cell number for TYS-Luc cells. Notes: (i) Bars denote the BHPI and (−)-105 arms of the experiment. No drug is present during regrow. […] This allows any surviving cells to regrow. After 4 weeks the cells were assayed using MTS. […] (Note: Visual inspection of the wells confirmed that there were no cells in the well treated for 2 weeks with active (−)-105.) To test whether the cells that regrew after BHPI treatment were resistant to BHPI they were re-treated for another cycle (BHPI Retreat) and shown to retain sensitivity to BHPI killing. (n=8 biological replicates ±SEM.

[4] = system: MCF-7Y537S (MCF-7 ERαY537S-luciferase) cells; assay: Long-term cell culture experiment, MCF-7 ERαY537S-luciferase; format: cell-based, human; conditions: conditions as FIG. 15 (1 μM)
[5] = 2 weeks after treatment stopped, per mouse
[6] = 4 weeks after treatment stopped, per mouse

SMILES: O=C1Nc2c(C(F)(F)F)cccc2C1(c1ccc(O)cc1)c1ccc(OC(F)(F)F)cc1 (single isomer, unassigned; (-)) [(−)-105, 3-(4-hydroxyphenyl)-3-(4-(trifluoromethoxy)phenyl)-7-(trifluoromethyl)indolin-2-one]
- tumor regrowth after sub-therapeutic dose ([1]; 10 mg/kg oral): tumors did regrow
- Week 2 No Drug % Change in Tumor Flux [1, 5]: −99.95% and −99.84% and −100% (2×) and −99.991%
- Week 2 No Drug Tumor Flux [1, 5]: 0.13 millions of photons/sec and 0.11 millions of photons/sec and 0 millions of photons/sec (2×) and 0.17 millions of photons/sec
- health / toxicity of treated mice ([1]; 3-week treatment): No toxicity
- micro-tumor regrowth after stopping treatment ([1]; 4 weeks after stopping treatment): NO “MICRO-TUMOR” REGROWTH
- Week 4 No Drug % Change in Tumor Flux [1, 6]: −99.98% and −99.88% and −100% and −99.997% and −99.998%
- Week 4 No Drug Tumor Flux [1, 6]: 0.038 millions of photons/sec (2×) and 0.084 millions of photons/sec and 0 millions of photons/sec and 0.048 millions of photons/sec
- Day 3 Flux ([1]; Day 3, per mouse, 40 mg/kg daily, 40 mg/kg): 0.22 millions of photons/s and 0.043 millions of photons/s and 0.40 millions of photons/s and 0.29 millions of photons/s and 0.17 millions of photons/s
- Day 3 % Change in Tumor Flux ([1]; Day 3 vs Day 0, per mouse): −99.99% (2×) and −99.98% (2×) and −99.45%
- Day 7 Flux ([1]; Day 7, per mouse): 0.082 millions of photons/s and 0.041 millions of photons/s and 0.17 millions of photons/s and 0.059 millions of photons/s and 0.18 millions of photons/s
- Day 7 % Change in Tumor Flux ([1]; Day 7 vs Day 0, per mouse): −99.996% (2×) and −99.99% (2×) and −99.77%
- Day 14 Flux ([1]; Day 14, per mouse): 0.246 millions of photons/s and 0.039 millions of photons/s and 0.245 millions of photons/s and 0 millions of photons/s and 0.071 millions of photons/s
- Day 14 % Change in Tumor Flux ([1]; Day 14 vs Day 0, per mouse): −99.99% (2×) and −99.66% and −100% and −99.996%
- Day 21 Flux ([1]; Day 21, per mouse): 0.051 millions of photons/s and 0.16 millions of photons/s and 0.14 millions of photons/s and 0 millions of photons/s and 0.046 millions of photons/s
- Day 21 % Change in Tumor Flux ([1]; Day 21 vs Day 0, per mouse): −99.998% and −99.94% and −99.81% and −100% and −99.997%
- tumor regrowth upon treatment cessation ([1]; after 21 daily doses 40 mg/kg i.p.): tumors did not regrow
- tumor regression by BLI, 4 of the 5 tumors ([1]; after 3 days of treatment): more than 99.9%
- tumor regression by BLI, all five tumors ([1]; after 3 days of treatment): more than 99%
- tumor size using calipers, all 5 mice ([1]; after 3 days of treatment): undetectable
- tumor regression by BLI, 3 of the remaining 4 mice ([1]; after three weeks): more than 99.9%
- effect on Y537S tumors (TYS cell line) ([1]; dose-dependent, i.p. and oral administration): eradicates Y537S tumors
- tolerability ([1]; i.p. and oral administration): tolerated
- Start Recovery Flux ([1]; start of no-drug recovery after 3 weeks treatment, per mouse): 0.16 millions of photons/sec and 0.14 millions of photons/sec and 0 millions of photons/sec and 0.046 millions of photons/sec and 0.051 millions of photons/sec
- Start No Drug: % change in Tumor Flux ([1]; start of no-drug recovery, per mouse): −99.94% and −99.81% and −100% and −99.997%
- microtumor regrowth after stopping treatment ([1]; two weeks after treatment was stopped): had not started growing again
- tumor size using calipers, all 5 tumors ([1]; within seven days): undetectable size
- activity of enantiomers (cell death) [2]: active
- regrowth of cells after drug removal ([3]; 1 μM for 2 weeks, then 4 weeks without drug): no regrowth
- TYS-Luc cells killed ([3]; 1 μM, 2 weeks treatment): 100%
- eradication of cells in long-term experiment [4]: eradicates
